Reference: patent US12503461B2, “Pesticidally active heterocyclic derivatives with sulfur and sulfoximine containing substituents” (SYNGENTA CROP PROTECTION AG, priority 2019, dated 2025)

Assays:
Type in all cases: in vivo
[1] = test system: Spodoptera littoralis (Egyptian Cotton Leaf Worm); test: Example B7: Spodoptera littoralis (Egyptian cotton leaf worm), sprayed cotton leaf discs, L1 larvae; conditions: foliar, 72 h, application rate of 200 ppm, 3 days after infestation, in comparison to untreated samples
Method: Example B7: Spodoptera littoralis (Egyptian Cotton Leaf Worm
Cotton leaf discs were placed onto agar in 24-well microtiter plates and sprayed with aqueous test solutions prepared from 10′000 ppm DMSO stock solutions. After drying the leaf discs were infested with five L1 larvae. The samples were assessed for mortality, anti-feeding effect, and growth inhibition in comparison to untreated samples 3 days after infestation. Control of Spodoptera littoralis by a test sample is given when at least one of the categories mortality, anti-feedant effect, and growth inhibition is higher than the untreated sample.

[2] = test system: Plutella xylostella (Diamond Back Moth); test: Example B4: Plutella xylostella (diamond back moth), treated artificial diet, eggs; conditions: 192 h, application rate of 200 ppm, 8 days after infestation, in comparison to untreated samples, read-out: effect in at least one of the two categories (mortality or growth inhibition)
Method: Example B4: Plutella xylostella (Diamond Back Moth
24-well microtiter plates with artificial diet were treated with aqueous test solutions prepared from 10′000 ppm DMSO stock solutions by pipetting. After drying, Plutella eggs were pipetted through a plastic stencil onto a gel blotting paper and the plate was closed with it. The samples were assessed for mortality and growth inhibition in comparison to untreated samples 8 days after infestation.

[3] = test system: Diabrotica balteata (Corn Root Worm); test: Example B1: Diabrotica balteata (corn root worm), sprayed maize sprouts on agar, L2 larvae; conditions: 96 h, application rate of 200 ppm, 4 days after infestation, in comparison to untreated samples, read-out: effect in at least one of the two categories (mortality or growth inhibition)
Method: Example B1: Diabrotica balteata (Corn Root Worm
Maize sprouts placed onto an agar layer in 24-well microtiter plates were treated with aqueous test solutions prepared from 10′000 ppm DMSO stock solutions by spraying. After drying, the plates were infested with L2 larvae (6 to 10 per well). The samples were assessed for mortality and growth inhibition in comparison to untreated samples 4 days after infestation.

| SMILES | percent control (mortality, anti-feeding effect or growth inhibition) at 200 ppm [1] | percent effect (mortality or growth inhibition) at 200 ppm [2] | percent effect (mortality or growth inhibition) at 200 ppm [3] |
| --- | --- | --- | --- |
| CCS(=O)(=O)c1cc(N(C)C(C)=O)cnc1-c1nc2cc(S(=N)(=O)C(F)(F)F)ccc2o1 (stereo not shown) [P4, N-[5-ethylsulfonyl-6-[5-(trifluoromethylsulfonimidoyl)-1,3-benzoxazol-2-yl]-3-pyridyl]-N-methyl-acetamide] | ≥ 80% | ≥ 80% | ≥ 80% |
| CCN=S(=O)(c1ccc2oc(-c3ncc(-n4ccc(C(F)(F)F)n4)cc3S(=O)(=O)CC)nc2c1)C(F)(F)F (stereo not shown) [P5, ethylimino-[2-[3-ethylsulfonyl-5-[3-(trifluoromethyl)pyrazol-1-yl]-2-pyridyl]-1,3-benzoxazol-5-yl]-oxo-(trifluoromethyl)-λ^6-sulfane] | – | ≥ 80% | ≥ 80% |
| CCS(=O)(=O)c1cc(-n2ccc(C(F)(F)F)n2)cnc1-c1nc2cc(S(=N)(=O)C(F)(F)F)ccc2o1 (stereo not shown) [P6, [2-[3-ethylsulfonyl-5-[3-(trifluoromethyl)pyrazol-1-yl]-2-pyridyl]-1,3-benzoxazol-5-yl]-imino-oxo-(trifluoromethyl)-λ^6-sulfane] | ≥ 80% | ≥ 80% | ≥ 80% |
| CCS(=O)(=O)c1cccnc1-c1nc2cc(S(=O)(=NCC(F)(F)F)C(F)(F)F)ccc2o1 (stereo not shown) [P14, [2-(3-ethylsulfonyl-2-pyridyl)-1,3-benzoxazol-5-yl]-oxo-(2,2,2-trifluoroethylimino)-(trifluoromethyl)-λ^6-sulfane] | ≥ 80% | ≥ 80% | ≥ 80% |
| CCS(=O)(=O)c1cccnc1-c1nc2cc(S(=O)(=NC#N)C(F)(F)F)ccc2o1 (stereo not shown) [P15, [[2-(3-ethylsulfonyl-2-pyridyl)-1,3-benzoxazol-5-yl]-oxo-(trifluoromethyl)-λ^6-sulfanylidene]cyanamide] | – | ≥ 80% | ≥ 80% |
| CCS(=O)(=O)c1cc(OCC(F)(F)F)cnc1-c1nc2cc(S(=N)(=O)C(F)(F)F)ccc2o1 (stereo not shown) [P23, [2-[3-ethylsulfonyl-5-(2,2,2-trifluoroethoxy)-2-pyridyl]-1,3-benzoxazol-5-yl]-imino-oxo-(trifluoromethyl)-λ^6-sulfane] | ≥ 80% | ≥ 80% | ≥ 80% |
| CCS(=O)(=O)c1cc(C2(C#N)CC2)cnc1-c1nc2cc(S(=O)(=NCC(F)(F)F)C(F)(F)F)ccc2o1 (stereo not drawn) [P28, 1-[5-ethylsulfonyl-6-[5-[N-(2,2,2-trifluoroethyl)-S-(trifluoromethyl)sulfonimidoyl]-1,3-benzoxazol-2-yl]-3-pyridyl]cyclopropanecarbonitrile] | ≥ 80% | ≥ 80% | ≥ 80% |
| CCS(=O)(=O)c1cc(C2(C#N)CC2)cnc1-c1nc2cc(S(=O)(=NC3CC3)C(F)(F)F)ccc2o1 (stereo not drawn) [P30, 1-[6-[5-[N-cyclopropyl-S-(trifluoromethyl)sulfonimidoyl]-1,3-benzoxazol-2-yl]-5-ethylsulfonyl-3-pyridyl]cyclopropanecarbonitrile] | ≥ 80% | ≥ 80% | ≥ 80% |
| CCS(=O)(=O)c1cc(-n2ccc(Cl)n2)cnc1-c1nc2cc(S(=N)(=O)C(F)(F)F)ccc2o1 (stereo not shown) [P37, [2-[5-(3-chloropyrazol-1-yl)-3-ethylsulfonyl-2-pyridyl]-1,3-benzoxazol-5-yl]-imino-oxo-(trifluoromethyl)-λ^6-sulfane] | ≥ 80% | ≥ 80% | ≥ 80% |
| CCN=S(=O)(c1ccc2oc(-c3ncc(-n4ccc(Cl)n4)cc3S(=O)(=O)CC)nc2c1)C(F)(F)F (stereo not shown) [P38, [2-[5-(3-chloropyrazol-1-yl)-3-ethylsulfonyl-2-pyridyl]-1,3-benzoxazol-5-yl]-ethylimino-oxo-(trifluoromethyl)-λ^6-sulfane] | ≥ 80% | ≥ 80% | ≥ 80% |
| CCN=S(=O)(c1ccc2oc(-c3nc(-n4cncn4)ccc3S(=O)(=O)CC)nc2c1)C(F)(F)F (stereo not shown) [P39, ethylimino-[2-[3-ethylsulfonyl-6-(1,2,4-triazol-1-yl)-2-pyridyl]-1,3-benzoxazol-5-yl]-oxo-(trifluoromethyl)-λ^6-sulfane] | – | – | ≥ 80% |
| CCN=S(=O)(c1ccc2oc(-c3ncc(-c4nccc(C(F)(F)F)n4)cc3S(=O)(=O)CC)nc2c1)C(F)(F)F (stereo not shown) [P41, ethylimino-[2-[3-ethylsulfonyl-5-[4-(trifluoromethyl)pyrimidin-2-yl]-2-pyridyl]-1,3-benzoxazol-5-yl]-oxo-(trifluoromethyl)-λ^6-sulfane] | ≥ 80% | ≥ 80% | ≥ 80% |
| CCN=S(=O)(c1ccc2oc(-c3ncc(-c4ncc(Cl)cn4)cc3S(=O)(=O)CC)nc2c1)C(F)(F)F (stereo not shown) [P43, [2-[5-(5-chloropyrimidin-2-yl)-3-ethylsulfonyl-2-pyridyl]-1,3-benzoxazol-5-yl]-ethylimino-oxo-(trifluoromethyl)-λ^6-sulfane] | ≥ 80% | ≥ 80% | ≥ 80% |
| CCS(=O)(=O)c1ccc(-n2cnc(Cl)n2)nc1-c1nc2cc(S(=N)(=O)C(F)(F)F)ccc2n1C (stereo not shown) [P46, [2-[6-(3-chloro-1,2,4-triazol-1-yl)-3-ethylsulfonyl-2-pyridyl]-1-methyl-benzimidazol-5-yl]-imino-oxo-(trifluoromethyl)-λ^6-sulfane] | ≥ 80% | ≥ 80% | ≥ 80% |
| CCN=S(=O)(c1ccc2c(c1)nc(-c1nc(-n3cnc(Cl)n3)ccc1S(=O)(=O)CC)n2C)C(F)(F)F (stereo not shown) [P47, [2-[6-(3-chloro-1,2,4-triazol-1-yl)-3-ethylsulfonyl-2-pyridyl]-1-methyl-benzimidazol-5-yl]-ethylimino-oxo-(trifluoromethyl)-λ^6-sulfane] | ≥ 80% | ≥ 80% | ≥ 80% |
| CCS(=O)(=O)c1ccc(-n2cnc(C(F)(F)F)n2)nc1-c1nc2cc(S(=N)(=O)C(F)(F)F)ccc2n1C (stereo not shown) [P48, [2-[3-ethylsulfonyl-6-[3-(trifluoromethyl)-1,2,4-triazol-1-yl]-2-pyridyl]-1-methyl-benzimidazol-5-yl]-imino-oxo-(trifluoromethyl)-λ^6-sulfane] | ≥ 80% | ≥ 80% | ≥ 80% |
| CCN=S(=O)(c1ccc2c(c1)nc(-c1nc(-n3cnc(C(F)(F)F)n3)ccc1S(=O)(=O)CC)n2C)C(F)(F)F (stereo not shown) [P49, ethylimino-[2-[3-ethylsulfonyl-6-[3-(trifluoromethyl)-1,2,4-triazol-1-yl]-2-pyridyl]-1-methyl-benzimidazol-5-yl]-oxo-(trifluoromethyl)-λ^6-sulfane] | ≥ 80% | ≥ 80% | ≥ 80% |
| CCS(=O)(=O)c1ccc(-c2ncccn2)nc1-c1nc2cc(S(=N)(=O)C(F)(F)F)ccc2o1 (stereo not shown) [P54, [2-(3-ethylsulfonyl-6-pyrimidin-2-yl-2-pyridyl)-1,3-benzoxazol-5-yl]-imino-oxo-(trifluoromethyl)-λ^6-sulfane] | ≥ 80% | ≥ 80% | ≥ 80% |
| CCN=S(=O)(c1ccc2oc(-c3nc(-c4ncccn4)ccc3S(=O)(=O)CC)nc2c1)C(F)(F)F (stereo not shown) [P55, ethylimino-[2-(3-ethylsulfonyl-6-pyrimidin-2-yl-2-pyridyl)-1,3-benzoxazol-5-yl]-oxo-(trifluoromethyl)-λ^6-sulfane] | ≥ 80% | ≥ 80% | ≥ 80% |
| CCS(=O)(=O)c1ccc(-n2cncn2)nc1-c1nc2cc(S(=N)(=O)C(F)(F)F)ccc2o1 (stereo not shown) [P56, [2-[3-ethylsulfonyl-6-(1,2,4-triazol-1-yl)-2-pyridyl]-1,3-benzoxazol-5-yl]-imino-oxo-(trifluoromethyl)-λ^6-sulfane] | – | ≥ 80% | ≥ 80% |
